{"source": "patent US20140329868A1", "about": "“METHODS FOR TREATING HYPERTENSION” (TAKEDA PHARMACEUTICALS U.S.A., INC., priority 2005, published 2014)", "key": {"[1]": {"system": "oxonic acid (OA)-induced hyperuricemic model in Sprague-Dawley rats", "assay": "Example 4: renal arteriolar morphology in normal and OA-dosed rats", "format": "in vivo", "procedure": "Materials and Methods. To produce hyperuricemia, rats received OA (Sigma, St Louis Mo., USA) 750 mg/kg body weight daily by gastric gavage. To investigate the treatment effect of febuxostat (also referred to herein as “Fx”), the drug was administered in drinking water at 50 mg/L (approximately 5-6 mg/kg/day) four weeks after OA dosing while the respective controls received 5.84 mg/L of NaCl in drinking water (to maintain a salt concentration equivalent to the Febuxostat-containing water). The following four groups (n=10-11) were included in the study: Group 1, normal control rats which received no treatment for eight weeks; Group 2, Normal+Febuxostat rats which received no treatment for four weeks and then were treated with febuxostat for four weeks from Weeks 5 to 8; Group 3, OA rats which received OA for eight weeks; and Group 4, OA+Febuxostat rats which received OA for eight weeks and febuxostat for four weeks from Weeks 5 to 8. Body weight, food and water intakes were measured daily. Systolic blood pressure, obtained in conscious rats by a tail cuff sphygmomanometer, and plasma uric acid were measured in all animals at baseline and at the end of four and eight weeks. […]\nRenal Histology and Quantification of Morphology. […] Arteriolar morphology was assessed by indirect peroxidase immunostaining for alpha smooth-muscle actin (DAKO Corp, Carpinteria, Calif., USA). […]\nFor each arteriole, the outline of the vessel and its internal lumen (excluding the endothelium) were generated using computer analysis to calculate the total medial area (outline−inline) in 10 arterioles per biopsy. The media/lumen ratio was calculated by the outline/inline relationship (See, Sanchez-Lozada L G, et al., Am J Physiol Renal Physiol 283:F1105-F1110, (2002) and Sanchez-Lozada L G, et al., Kidney Int 67:237-247 (2005)). Quantifications were performed blinded.\nStatistical Analysis. Values were expressed as mean±standard error of the mean (hereinafter “SEM”). In the study, values from the respective four treatment groups were analyzed by one-way analysis of variance (hereinafter “ANOVA”). […]"}, "[2]": {"assay": "Example 4: body weight, food and water intake, side effects in normal and OA-dosed rats", "format": "in vivo, Sprague-Dawley rats", "procedure": "Materials and Methods. To produce hyperuricemia, rats received OA (Sigma, St Louis Mo., USA) 750 mg/kg body weight daily by gastric gavage. To investigate the treatment effect of febuxostat (also referred to herein as “Fx”), the drug was administered in drinking water at 50 mg/L (approximately 5-6 mg/kg/day) four weeks after OA dosing while the respective controls received 5.84 mg/L of NaCl in drinking water (to maintain a salt concentration equivalent to the Febuxostat-containing water). The following four groups (n=10-11) were included in the study: Group 1, normal control rats which received no treatment for eight weeks; Group 2, Normal+Febuxostat rats which received no treatment for four weeks and then were treated with febuxostat for four weeks from Weeks 5 to 8; Group 3, OA rats which received OA for eight weeks; and Group 4, OA+Febuxostat rats which received OA for eight weeks and febuxostat for four weeks from Weeks 5 to 8. Body weight, food and water intakes were measured daily. Systolic blood pressure, obtained in conscious rats by a tail cuff sphygmomanometer, and plasma uric acid were measured in all animals at baseline and at the end of four and eight weeks. A renal micropuncture procedure along with systemic arterial blood pressure monitoring under pentobarbital anesthesia were performed at the end of eight weeks followed by morphologic evaluation of the renal preglomerular microvasculature.\nEvaluation. Food and water intake were determined daily. Systolic blood pressure (hereinafter “SBP”) was measured in conscious animals by a tail cuff sphygmomanometer using an automated system (XBP-100, Kent Scientific Co, USA). All animals were preconditioned for blood pressure measurements one week before each experiment. Plasma UA, insulin and triglycerides were quantified using commercial kits (Diagnostic Chemicals Ltd, USA; Crystalchem, USA and Spinreact, Spain, respectively).\nStatistical Analysis. Values were expressed as mean±standard error of the mean (hereinafter “SEM”). In the study, values from the respective four treatment groups were analyzed by one-way analysis of variance (hereinafter “ANOVA”). When the ANOVA p value was <0.05, the following comparisons were made using Bonferroni multiple comparison test: Normal Control vs. Normal+Fx, Normal Control vs. OA, Normal Control vs. OA+Fx and OA vs. OA+Fx. Pair wise comparisons were performed using contrast within the framework of the statistical model."}, "[3]": {"system": "subjects having a systolic BP≧160 mmHg or diastolic BP≧95 mmHg (elevated blood pressure)", "assay": "Example 1: blood pressure change in subjects with elevated blood pressure, none taking antihypertensive agents at baseline (two double-blind studies)", "format": "in vivo, human", "procedure": "A total of 103 subjects (9 in the placebo group, 26 in each the 2-[3-cyano-4-(2-methylpropoxy)phenyl]-4-methylthiazole-5-carboxylic acid (hereinafter referred to as “febuxostat”) 80 mg and 120 mg once daily (hereinafter referred to as “QD”) groups, 10 in the febuxostat 240 mg QD group and 32 in the 4-hydroxy-3,4-pyrazolopyrimidine (hereinafter referred to as “allopurinol”) 300/100 mg QD group), having a systolic BP≧160 mmHg or diastolic BP≧95 mmHg, and thus considered to have “elevated blood pressure”, were examined. Allopurinol […] xanthine oxidoreductase inhibitor.\nNone of the above subjects were taking any antihypertensive agents at the baseline (start) of the study. These […] subjects were part of two (2) double-blind (hereinafter referred to as “DB”) studies. One study was of 28 weeks in duration. During this time, the subjects received 80 mg, 120 mg or 240 mg QD of febuxostat, placebo or allopurinol 300 or 100 mg QD, depending on the subject's renal function. The second study was 52 weeks in duration. During this time, the subjects received 80 mg or 120 mg QD of febuxostat or allopurinol 300 mg QD."}, "[4]": {"details": "Normal + Fx rats, End of Week 4 (before Fx)"}, "[5]": {"details": "Normal + Fx rats, End of Week 8"}, "[6]": {"details": "Normal + Fx rats, Week 1 (before Fx)"}, "[7]": {"details": "Normal + Fx rats, Week 4 (before Fx)"}, "[8]": {"details": "OA + Fx rats, End of Week 4 (before Fx)"}, "[9]": {"details": "OA + Fx rats, Week 1 (before Fx)"}, "[10]": {"details": "OA + Fx rats, Week 4 (before Fx)"}, "[11]": {"details": "80 mg QD, after 4 weeks of treatment"}, "[12]": {"details": "80 mg QD, after 28 weeks of treatment"}, "[13]": {"details": "80 mg QD, after 52 weeks of treatment"}, "[14]": {"details": "120 mg QD, after 4 weeks of treatment"}, "[15]": {"details": "120 mg QD, after 28 weeks of treatment"}, "[16]": {"details": "120 mg QD, after 52 weeks of treatment"}, "[17]": {"details": "240 mg QD, after 4 weeks of treatment"}, "[18]": {"details": "240 mg QD, after 28 weeks of treatment"}}, "data": [{"smiles": "Cc1nc(-c2ccc(OCC(C)C)c(C#N)c2)sc1C(=O)O", "note": "[febuxostat, 2-[3-cyano-4-(2-methylpropoxy)phenyl]-4-methylthiazole-5-carboxylic acid]", "values": [{"measurement": "thickening of the afferent arteriole (medial area), effect in words", "setting": "[1]; OA-treated rats, FIG. 4", "value": "able to alleviate this thickening"}, {"measurement": "arteriolar media-lumen ratio (effect in words)", "setting": "[1]; OA-treated rats, FIG. 5", "value": "significantly reduced"}, {"measurement": "arteriolar morphology (effect in words)", "setting": "[1]; normal rats", "value": "no effect on arteriolar morphology"}, {"measurement": "BW", "setting": "[2]; Normal + Fx rats, Baseline (Fx 50 mg/L in drinking water Weeks 5 to 8), mean ± SEM", "value": "319.9 ± 3.0", "unit": "gr"}, {"measurement": "% BW gain from baseline", "setting": "[2]; [4]", "value": "11.9 ± 1.8", "unit": "%"}, {"measurement": "BW", "setting": "[2]; [4]", "value": "359.3 ± 7.2", "unit": "gr"}, {"measurement": "% BW gain from Week 4", "setting": "[2]; [5]", "value": "6.6 ± 0.8", "unit": "%"}, {"measurement": "% BW gain from baseline", "setting": "[2]; [5]", "value": "18.7 ± 1.8", "unit": "%"}, {"measurement": "BW", "setting": "[2]; [5]", "value": "377.7 ± 7.5", "unit": "gr"}, {"measurement": "Daily Food intake", "setting": "[2]; [6]", "value": "18.3 ± 0.6", "unit": "gr"}, {"measurement": "Daily Water intake", "setting": "[2]; [6]", "value": "34.5 ± 2.4", "unit": "mL"}, {"measurement": "Daily Food intake", "setting": "[2]; [7]", "value": "16.0 ± 0.7", "unit": "gr"}, {"measurement": "Daily Water intake", "setting": "[2]; [7]", "value": "32.3 ± 1.4", "unit": "mL"}, {"measurement": "Daily Food intake", "setting": "[2]; Normal + Fx rats, Week 8", "value": "18.0 ± 0.4", "unit": "gr"}, {"measurement": "Daily Water intake", "setting": "[2]; Normal + Fx rats, Week 8", "value": "39.7 ± 1.7", "unit": "mL"}, {"measurement": "BW", "setting": "[2]; OA + Fx rats, Baseline (Fx 50 mg/L in drinking water Weeks 5 to 8), mean ± SEM", "value": "323.6 ± 3.2", "unit": "gr"}, {"measurement": "% BW gain from baseline", "setting": "[2]; [8]", "value": "6.7 ± 1.7", "unit": "%"}, {"measurement": "BW", "setting": "[2]; [8]", "value": "345.3 ± 5.7", "unit": "gr"}, {"measurement": "% BW gain from Week 4", "setting": "[2]; OA + Fx rats, End of Week 8", "value": "5.2 ± 0.7", "unit": "%"}, {"measurement": "% BW gain from baseline", "setting": "[2]; OA + Fx rats, End of Week 8", "value": "12.3 ± 1.9", "unit": "%"}, {"measurement": "BW", "setting": "[2]; OA + Fx rats, End of Week 8", "value": "363.2 ± 5.7", "unit": "gr"}, {"measurement": "Daily Food intake", "setting": "[2]; [9]", "value": "15.1 ± 0.7", "unit": "gr"}, {"measurement": "Daily Water intake", "setting": "[2]; [9]", "value": "36.6 ± 2.2", "unit": "mL"}, {"measurement": "Daily Food intake", "setting": "[2]; [10]", "value": "17.4 ± 0.7", "unit": "gr"}, {"measurement": "Daily Water intake", "setting": "[2]; [10]", "value": "33.8 ± 2.4", "unit": "mL"}, {"measurement": "Daily Food intake", "setting": "[2]; OA + Fx rats, Week 8", "value": "18.6 ± 0.4", "unit": "gr"}, {"measurement": "Daily Water intake", "setting": "[2]; OA + Fx rats, Week 8", "value": "42.6 ± 2.3", "unit": "mL"}, {"measurement": "behaviour and side effects", "setting": "[2]; all rats, eight-week study", "value": "no side effects were observed"}, {"measurement": "mean change from baseline for diastolic BP", "setting": "[3]; [11]", "value": "−3.7", "unit": "mmHg"}, {"measurement": "mean change from baseline for mean arterial BP", "setting": "[3]; [11]", "value": "−5.2", "unit": "mmHg"}, {"measurement": "mean change from baseline for systolic BP", "setting": "[3]; [11]", "value": "−8.2", "unit": "mmHg"}, {"measurement": "mean change from baseline for diastolic BP", "setting": "[3]; [12]", "value": "−10.2", "unit": "mmHg"}, {"measurement": "mean change from baseline for mean arterial BP", "setting": "[3]; [12]", "value": "−11.1", "unit": "mmHg"}, {"measurement": "mean change from baseline for systolic BP", "setting": "[3]; [12]", "value": "−13.0", "unit": "mmHg"}, {"measurement": "mean change from baseline for diastolic BP", "setting": "[3]; [13]", "value": "−12.3", "unit": "mmHg"}, {"measurement": "mean change from baseline for mean arterial BP", "setting": "[3]; [13]", "value": "−12.7", "unit": "mmHg"}, {"measurement": "mean change from baseline for systolic BP", "setting": "[3]; [13]", "value": "−13.4", "unit": "mmHg"}, {"measurement": "mean change from baseline for diastolic BP", "setting": "[3]; [14]", "value": "−8.4", "unit": "mmHg"}, {"measurement": "mean change from baseline for mean arterial BP", "setting": "[3]; [14]", "value": "−9.3", "unit": "mmHg"}, {"measurement": "mean change from baseline for systolic BP", "setting": "[3]; [14]", "value": "−11.0", "unit": "mmHg"}, {"measurement": "mean change from baseline for diastolic BP", "setting": "[3]; [15]", "value": "−6.4", "unit": "mmHg"}, {"measurement": "mean change from baseline for mean arterial BP", "setting": "[3]; [15]", "value": "−9.0", "unit": "mmHg"}, {"measurement": "mean change from baseline for systolic BP", "setting": "[3]; [15]", "value": "−14.2", "unit": "mmHg"}, {"measurement": "mean change from baseline for diastolic BP", "setting": "[3]; [16]", "value": "−10.0", "unit": "mmHg"}, {"measurement": "mean change from baseline for mean arterial BP", "setting": "[3]; [16]", "value": "−15.2", "unit": "mmHg"}, {"measurement": "mean change from baseline for systolic BP", "setting": "[3]; [16]", "value": "−25.8", "unit": "mmHg"}, {"measurement": "mean change from baseline for diastolic BP", "setting": "[3]; [17]", "value": "−8.9", "unit": "mmHg"}, {"measurement": "mean change from baseline for mean arterial BP", "setting": "[3]; [17]", "value": "−9.3", "unit": "mmHg"}, {"measurement": "mean change from baseline for systolic BP", "setting": "[3]; [17]", "value": "−10.0", "unit": "mmHg"}, {"measurement": "mean change from baseline for diastolic BP", "setting": "[3]; [18]", "value": "−5.0", "unit": "mmHg"}, {"measurement": "mean change from baseline for mean arterial BP", "setting": "[3]; [18]", "value": "−6.0", "unit": "mmHg"}, {"measurement": "mean change from baseline for systolic BP", "setting": "[3]; [18]", "value": "−8.0", "unit": "mmHg"}]}]}
